Measured values from ChEMBL document CHEMBL1153801, “4-(Benzimidazol-2-yl)-1,2,5-oxadiazol-3-ylamine derivatives: potent and selective p70S6 kinase inhibitors” (Bioorg Med Chem Lett, 2009).

Experiments:
[1] = biological target: Glycogen synthase kinase-3 beta (Homo sapiens, UniProt P49841)
[2] = biological target: Ribosomal protein S6 kinase beta-1 (Homo sapiens, UniProt P23443); assay: Inhibition of p70S6K assessed as decrease in NADH absorbance at 340 nm in the presence of
[3] = biological target: cAMP-dependent protein kinase catalytic subunit alpha (Homo sapiens, UniProt P17612); assay: Inhibition of PKAalpha assessed as decrease in NADH absorbance at 340 nm in the presence of
[4] = biological target: Rho-associated protein kinase 1 (Homo sapiens, UniProt Q13464)
Sequence of Rho-associated protein kinase 1 (Q13464 whole entry): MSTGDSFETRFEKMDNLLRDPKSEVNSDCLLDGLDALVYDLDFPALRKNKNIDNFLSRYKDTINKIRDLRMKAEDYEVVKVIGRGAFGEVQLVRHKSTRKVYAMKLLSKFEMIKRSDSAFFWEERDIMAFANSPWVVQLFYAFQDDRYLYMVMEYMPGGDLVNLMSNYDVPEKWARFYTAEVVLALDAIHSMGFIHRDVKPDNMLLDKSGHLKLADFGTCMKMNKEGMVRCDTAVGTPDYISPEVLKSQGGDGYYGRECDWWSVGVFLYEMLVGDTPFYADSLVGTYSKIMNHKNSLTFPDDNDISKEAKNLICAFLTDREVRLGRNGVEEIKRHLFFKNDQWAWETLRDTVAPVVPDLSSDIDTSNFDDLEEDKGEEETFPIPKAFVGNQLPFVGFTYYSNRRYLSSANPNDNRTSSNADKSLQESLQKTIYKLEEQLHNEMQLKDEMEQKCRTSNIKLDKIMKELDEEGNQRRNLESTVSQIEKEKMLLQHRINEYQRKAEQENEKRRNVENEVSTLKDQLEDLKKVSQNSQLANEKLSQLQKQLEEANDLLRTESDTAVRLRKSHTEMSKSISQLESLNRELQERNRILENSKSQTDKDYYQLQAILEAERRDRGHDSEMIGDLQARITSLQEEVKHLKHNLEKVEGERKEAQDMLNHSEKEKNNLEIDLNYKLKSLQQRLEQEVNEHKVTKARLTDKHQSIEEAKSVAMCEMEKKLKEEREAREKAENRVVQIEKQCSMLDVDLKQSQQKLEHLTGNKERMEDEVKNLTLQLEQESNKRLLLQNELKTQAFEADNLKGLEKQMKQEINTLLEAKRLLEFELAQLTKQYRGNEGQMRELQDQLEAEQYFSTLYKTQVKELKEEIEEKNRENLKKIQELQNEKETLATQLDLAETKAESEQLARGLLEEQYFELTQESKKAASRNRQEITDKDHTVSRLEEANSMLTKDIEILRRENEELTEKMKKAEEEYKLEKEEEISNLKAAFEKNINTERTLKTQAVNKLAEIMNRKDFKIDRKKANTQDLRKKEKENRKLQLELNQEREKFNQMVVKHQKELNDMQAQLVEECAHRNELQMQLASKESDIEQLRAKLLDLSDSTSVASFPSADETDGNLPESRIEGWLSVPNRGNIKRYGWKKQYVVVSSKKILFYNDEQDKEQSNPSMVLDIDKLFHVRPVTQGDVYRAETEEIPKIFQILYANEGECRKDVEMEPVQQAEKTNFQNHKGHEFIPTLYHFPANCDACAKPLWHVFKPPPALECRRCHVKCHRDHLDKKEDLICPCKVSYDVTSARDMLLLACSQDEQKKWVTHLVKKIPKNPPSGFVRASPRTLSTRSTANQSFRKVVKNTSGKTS
Description: Inhibition of ROCK1 assessed as decrease in NADH absorbance at 340 nm in the presence of

Sequence of Glycogen synthase kinase-3 beta (P49841 whole entry): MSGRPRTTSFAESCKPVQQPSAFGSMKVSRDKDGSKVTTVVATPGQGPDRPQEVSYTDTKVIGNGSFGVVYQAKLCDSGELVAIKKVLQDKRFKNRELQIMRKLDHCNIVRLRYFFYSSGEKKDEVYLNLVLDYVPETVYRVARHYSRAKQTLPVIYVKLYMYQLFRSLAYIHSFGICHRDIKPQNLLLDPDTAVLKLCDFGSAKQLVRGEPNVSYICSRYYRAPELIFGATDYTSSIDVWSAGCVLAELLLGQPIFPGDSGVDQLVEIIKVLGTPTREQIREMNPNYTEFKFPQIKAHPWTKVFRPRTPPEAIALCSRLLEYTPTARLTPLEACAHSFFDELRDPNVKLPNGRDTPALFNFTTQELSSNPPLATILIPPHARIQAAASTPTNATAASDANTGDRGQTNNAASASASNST
Sequence of Ribosomal protein S6 kinase beta-1 (P23443 whole entry): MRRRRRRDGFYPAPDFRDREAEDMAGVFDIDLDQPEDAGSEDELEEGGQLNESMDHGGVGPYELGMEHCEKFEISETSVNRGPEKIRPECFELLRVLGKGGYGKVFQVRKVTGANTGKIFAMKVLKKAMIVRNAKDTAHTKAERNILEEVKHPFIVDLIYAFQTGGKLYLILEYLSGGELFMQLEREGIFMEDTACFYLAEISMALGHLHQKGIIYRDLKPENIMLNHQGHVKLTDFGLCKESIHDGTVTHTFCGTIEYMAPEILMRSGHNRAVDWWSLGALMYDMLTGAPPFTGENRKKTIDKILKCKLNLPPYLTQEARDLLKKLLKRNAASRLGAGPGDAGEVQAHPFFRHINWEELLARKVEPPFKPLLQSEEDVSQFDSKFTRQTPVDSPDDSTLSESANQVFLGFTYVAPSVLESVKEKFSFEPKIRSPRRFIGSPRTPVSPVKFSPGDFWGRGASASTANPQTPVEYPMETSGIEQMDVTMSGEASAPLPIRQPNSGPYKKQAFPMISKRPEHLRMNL

Ki [1]	Ki [2]	Ki [3]	Ki [4]	Structure (SMILES)
690 nM	340 nM	> 3300 nM	> 3300 nM	Cc1cn(CC(C)C)c(-c2nonc2N)n1
> 5000 nM	1900 nM		> 5000 nM	COc1cccc(-n2c(-c3nonc3N)nc3ccccc32)c1
> 5000 nM	550 nM	> 4000 nM	2100 nM	COc1ccc(-n2c(-c3nonc3N)nc3ccccc32)cc1
> 3300 nM	26 nM	> 5000 nM	810 nM	N#Cc1ccccc1-n1c(-c2nonc2N)nc2ccccc21
> 2500 nM	800 nM	> 5000 nM	> 2500 nM	N#Cc1cccc(-n2c(-c3nonc3N)nc3ccccc32)c1
1000 nM	800 nM	> 5000 nM	> 2500 nM	N#Cc1ccc(-n2c(-c3nonc3N)nc3ccccc32)cc1
> 5000 nM	31 nM	> 5000 nM	1300 nM	COc1ccccc1-n1c(-c2nonc2N)nc2ccccc21
7300 nM	540 nM	> 4000 nM	> 3300 nM	Cn1c(-c2nonc2N)nc2ccccc21
	69 nM	1400 nM		Nc1nonc1-c1nc2ccccc2n1CC1CCC1
1100 nM	< 1 nM	2800 nM	2200 nM	Nc1nonc1-c1nc2cc(O)ccc2n1C1CCC1
	22 nM	1100 nM	930 nM	CC(C)Cn1c(-c2nonc2N)nc2ccccc21
3200 nM	19 nM	2600 nM	> 3300 nM	Cc1ccc2c(c1)nc(-c1nonc1N)n2C1CCC1
1500 nM	40 nM	> 3300 nM	1900 nM	CC(C)n1c(-c2nonc2N)nc2ccccc21
> 3300 nM	89 nM	1200 nM	> 3300 nM	CC(C)Cn1cc(-c2ccccc2)nc1-c1nonc1N
380 nM	4 nM	540 nM	180 nM	Nc1nonc1-c1nc2ccccc2n1C1CCC1
460 nM	39 nM	2500 nM	940 nM	COc1ccc2c(c1)nc(-c1nonc1N)n2C1CCC1
> 3300 nM	410 nM	> 3300 nM	> 3300 nM	COC(=O)c1ccc2c(c1)nc(-c1nonc1N)n2C1CCC1
> 3300 nM	2200 nM	> 3300 nM	> 3300 nM	CC(=O)Nc1ccc2c(c1)nc(-c1nonc1N)n2C1CCC1
> 3300 nM	16 nM	1500 nM	> 3300 nM	Nc1nonc1-c1nc2cc(CO)ccc2n1C1CCC1
> 3300 nM	1600 nM	> 3300 nM	> 3300 nM	CC(C)Cn1cc(C#N)nc1-c1nonc1N
700 nM	50 nM	960 nM	330 nM	CCn1c(-c2nonc2N)nc2ccccc21 [GW549034X]

Structure (SMILES)	Ki [1]	Ki [2]	Ki [3]	Ki [4]
Nc1nonc1-c1nc2ccccc2n1-c1ccccc1	620 nM	110 nM	1300 nM	590 nM
Nc1nonc1-c1nc2ccccc2n1C1CCCCC1	240 nM	12 nM	600 nM	720 nM
Nc1nonc1-c1nc2ccccc2n1CC1CC1	290 nM	12 nM	380 nM	360 nM
Nc1nonc1-c1nc2ccccc2n1C1CC1	> 3300 nM	95 nM	> 3300 nM	450 nM
Nc1nonc1-c1nc2ccccc2n1C1CCCC1	210 nM	13 nM	720 nM	340 nM
Nc1ccc2c(c1)nc(-c1nonc1N)n2C1CCC1	2100 nM	< 1 nM	34 nM	85 nM
